Reference: the NIST ThermoML archive (doi:10.1016/j.jct.2011.06.007)
Numbers after ± are expanded uncertainties.

Assay: activity coefficient (dimensionless); of the first substance listed, at infinite dilution; xn = mol fraction of the nth substance listed
Details: 348.15 K; 101 kPa; Liquid; Chromatography; x1 = 0

activity coefficient	Structure (SMILES)
26.1 ± 1.8	C=CCCCCCCCC [1-decene] + CCCC[N+]1(C)CCCC1.N#C[B-](C#N)(C#N)C#N
9.72 ± 0.66	C=CCCCCC [1-heptene] + CCCC[N+]1(C)CCCC1.N#C[B-](C#N)(C#N)C#N
3.53 ± 0.24	C#CCCCCC [1-heptyne] + CCCC[N+]1(C)CCCC1.N#C[B-](C#N)(C#N)C#N
2.63 ± 0.18	C#CCCCC [1-hexyne] + CCCC[N+]1(C)CCCC1.N#C[B-](C#N)(C#N)C#N
4.85 ± 0.33	C#CCCCCCC [1-octyne] + CCCC[N+]1(C)CCCC1.N#C[B-](C#N)(C#N)C#N
5.24 ± 0.36	C=CCCC [1-pentene] + CCCC[N+]1(C)CCCC1.N#C[B-](C#N)(C#N)C#N
22.5 ± 1.5	CC(C)CC(C)(C)C [2,2,4-trimethylpentane] + CCCC[N+]1(C)CCCC1.N#C[B-](C#N)(C#N)C#N
12.9 ± 0.9	CCC(C)(C)C [2,2-dimethylbutane] + CCCC[N+]1(C)CCCC1.N#C[B-](C#N)(C#N)C#N
3.36 ± 0.23	CCC(C)(C)OC [2-methoxy-2-methylbutane] + CCCC[N+]1(C)CCCC1.N#C[B-](C#N)(C#N)C#N
2.48 ± 0.17	COC(C)(C)C [2-methoxy-2-methylpropane] + CCCC[N+]1(C)CCCC1.N#C[B-](C#N)(C#N)C#N
12.6 ± 0.9	CCC(C)CC [3-methylpentane] + CCCC[N+]1(C)CCCC1.N#C[B-](C#N)(C#N)C#N
0.855 ± 0.055	c1ccccc1 [benzene] + CCCC[N+]1(C)CCCC1.N#C[B-](C#N)(C#N)C#N
1.44 ± 0.09	CCCCO [butan-1-ol] + CCCC[N+]1(C)CCCC1.N#C[B-](C#N)(C#N)C#N
8.85 ± 0.6	C1CCCCCC1 [cycloheptane] + CCCC[N+]1(C)CCCC1.N#C[B-](C#N)(C#N)C#N
7.23 ± 0.49	C1CCCCC1 [cyclohexane] + CCCC[N+]1(C)CCCC1.N#C[B-](C#N)(C#N)C#N
3.88 ± 0.26	C1=CCCCC1 [cyclohexene] + CCCC[N+]1(C)CCCC1.N#C[B-](C#N)(C#N)C#N
11.2 ± 0.8	C1CCCCCCC1 [cyclooctane] + CCCC[N+]1(C)CCCC1.N#C[B-](C#N)(C#N)C#N
5.18 ± 0.35	C1CCCC1 [cyclopentane] + CCCC[N+]1(C)CCCC1.N#C[B-](C#N)(C#N)C#N
50.4 ± 3.5	CCCCCCCCCC [decane] + CCCC[N+]1(C)CCCC1.N#C[B-](C#N)(C#N)C#N
5.82 ± 0.4	CC(C)OC(C)C [diisopropyl ether] + CCCC[N+]1(C)CCCC1.N#C[B-](C#N)(C#N)C#N
5.42 ± 0.37	CCCOCCC [dipropyl ether] + CCCC[N+]1(C)CCCC1.N#C[B-](C#N)(C#N)C#N
1.02 ± 0.06	CCO [ethanol] + CCCC[N+]1(C)CCCC1.N#C[B-](C#N)(C#N)C#N
1.64 ± 0.11	CCc1ccccc1 [ethylbenzene] + CCCC[N+]1(C)CCCC1.N#C[B-](C#N)(C#N)C#N
19 ± 1.3	CCCCCCC [heptane] + CCCC[N+]1(C)CCCC1.N#C[B-](C#N)(C#N)C#N
7.03 ± 0.48	C=CCCCC [hex-1-ene] + CCCC[N+]1(C)CCCC1.N#C[B-](C#N)(C#N)C#N
13.8 ± 0.9	CCCCCC [hexane] + CCCC[N+]1(C)CCCC1.N#C[B-](C#N)(C#N)C#N
0.812 ± 0.053	CO [methanol] + CCCC[N+]1(C)CCCC1.N#C[B-](C#N)(C#N)C#N
10.1 ± 0.7	CC1CCCCC1 [methylcyclohexane] + CCCC[N+]1(C)CCCC1.N#C[B-](C#N)(C#N)C#N
36.3 ± 2.5	CCCCCCCCC [nonane] + CCCC[N+]1(C)CCCC1.N#C[B-](C#N)(C#N)C#N
13.4 ± 0.9	C=CCCCCCC [oct-1-ene] + CCCC[N+]1(C)CCCC1.N#C[B-](C#N)(C#N)C#N

Structure (SMILES)	activity coefficient
Cc1ccccc1C [1,2-dimethylbenzene] + CCCC[N+]1(C)CCCC1.N#C[B-](C#N)(C#N)C#N	1.41 ± 0.09
Cc1cccc(C)c1 [1,3-dimethylbenzene] + CCCC[N+]1(C)CCCC1.N#C[B-](C#N)(C#N)C#N	1.62 ± 0.11
Cc1ccc(C)cc1 [1,4-dimethylbenzene] + CCCC[N+]1(C)CCCC1.N#C[B-](C#N)(C#N)C#N	1.58 ± 0.1
CC(C)=O [acetone] + CCCC[N+]1(C)CCCC1.N#C[B-](C#N)(C#N)C#N	0.464 ± 0.036
CCOCC [diethyl ether] + CCCC[N+]1(C)CCCC1.N#C[B-](C#N)(C#N)C#N	2.36 ± 0.16

Same assay, conditions: 358.15 K; 101 kPa; Liquid; Chromatography; x1 = 0

activity coefficient	Structure (SMILES)
23.5 ± 1.6	C=CCCCCCCCC [1-decene] + CCCC[N+]1(C)CCCC1.N#C[B-](C#N)(C#N)C#N
9.09 ± 0.62	C=CCCCCC [1-heptene] + CCCC[N+]1(C)CCCC1.N#C[B-](C#N)(C#N)C#N
3.54 ± 0.24	C#CCCCCC [1-heptyne] + CCCC[N+]1(C)CCCC1.N#C[B-](C#N)(C#N)C#N
2.63 ± 0.18	C#CCCCC [1-hexyne] + CCCC[N+]1(C)CCCC1.N#C[B-](C#N)(C#N)C#N
4.81 ± 0.33	C#CCCCCCC [1-octyne] + CCCC[N+]1(C)CCCC1.N#C[B-](C#N)(C#N)C#N
5.01 ± 0.34	C=CCCC [1-pentene] + CCCC[N+]1(C)CCCC1.N#C[B-](C#N)(C#N)C#N
20.9 ± 1.4	CC(C)CC(C)(C)C [2,2,4-trimethylpentane] + CCCC[N+]1(C)CCCC1.N#C[B-](C#N)(C#N)C#N
12.1 ± 0.8	CCC(C)(C)C [2,2-dimethylbutane] + CCCC[N+]1(C)CCCC1.N#C[B-](C#N)(C#N)C#N
3.37 ± 0.23	CCC(C)(C)OC [2-methoxy-2-methylbutane] + CCCC[N+]1(C)CCCC1.N#C[B-](C#N)(C#N)C#N
2.52 ± 0.17	COC(C)(C)C [2-methoxy-2-methylpropane] + CCCC[N+]1(C)CCCC1.N#C[B-](C#N)(C#N)C#N
11.8 ± 0.8	CCC(C)CC [3-methylpentane] + CCCC[N+]1(C)CCCC1.N#C[B-](C#N)(C#N)C#N
0.87 ± 0.056	c1ccccc1 [benzene] + CCCC[N+]1(C)CCCC1.N#C[B-](C#N)(C#N)C#N
1.33 ± 0.09	CCCCO [butan-1-ol] + CCCC[N+]1(C)CCCC1.N#C[B-](C#N)(C#N)C#N

Structure (SMILES)	activity coefficient
Cc1ccccc1C [1,2-dimethylbenzene] + CCCC[N+]1(C)CCCC1.N#C[B-](C#N)(C#N)C#N	1.43 ± 0.09
Cc1cccc(C)c1 [1,3-dimethylbenzene] + CCCC[N+]1(C)CCCC1.N#C[B-](C#N)(C#N)C#N	1.64 ± 0.11
Cc1ccc(C)cc1 [1,4-dimethylbenzene] + CCCC[N+]1(C)CCCC1.N#C[B-](C#N)(C#N)C#N	1.59 ± 0.11
CC(C)=O [acetone] + CCCC[N+]1(C)CCCC1.N#C[B-](C#N)(C#N)C#N	0.468 ± 0.037
